# Several values for one entry are separate records, joined by “and”; a condition that tells them apart may be missing. Equal entries are not always repeated. Marks after values point to notes of the source that are not given here.
# Test: Toxicity assessment (CTCAE version 4): treatment-related AEs, DLTs, dose reductions, RP2D; phase 1 NANT2015-02
# Experimental: Five DLs (45, 60, 75, 95 and 115 mg/m^2/dose) were assessed in A1, using a 3 + 3 design. […] Myeloid growth factor was given 24 hours after the completion of topotecan/cyclophosphamide on B2, according to institutional standards. Instructions and hands-on training for a tablet dispersion formulation, validated by Pfizer, was provided to families of patients who could not swallow tablets.
# Initially, this was the only DL planned, but, with a subsequent amendment, a second DL was added to cohort A2 (150 mg). […] Finally, because of the nature of the patients in cohort A2 (which had only two planned DLs), an expansion of up to six additional patients was planned for the highest DL tested with zero or one DLT in six DLT-evaluable patients. Accrual could continue in the expansion cohort as long as none, or at most one, of the patients experienced DLT in the DLT observation period; if two or more patients experienced DLT in the DLT observation period, this would lead to a discussion of the suitability of this dose. The probability of observing […] with DLT, out of six patients, is 0.11, 0.22, 0.47, 0.68 and 0.77 when the true probability of DLT is 0.10, 0.15, 0.25, 0.35 and 0.40, respectfully.
# Patients who were not evaluable for DLT were replaced for dose-escalation purposes. […] The MTD was defined as the highest DL tested at which zero of six or one of six patients experience DLT. After determination of the MTD and review of all toxicities, and provided that other safety considerations were acceptable, the MTD was labeled the RP2D.
# Toxicity was graded according to CTCAE version 4. DLT definitions included only toxicities deemed at least possibly related to therapy. For A1 and A2, hematologic DLT was defined as grade 4 thrombocytopenia or grade 4 neutropenia >7-day duration or a delay in the start of subsequent course by more than 14 days due to ongoing thrombocytopenia or neutropenia, in the absence of bone marrow disease progression seen on clinically indicated bone marrow biopsy (if performed). For cohort B2, hematological DLT is defined as a delay in the start of subsequent course by more than 14 days due to ongoing thrombocytopenia or neutropenia, in the absence of bone marrow disease progression seen on clinically indicated bone marrow biopsy after the first dose reduction of cyclophosphamide and topotecan. Non-hematologic DLT was defined as any non-hematologic toxicity that delayed the start of a subsequent cycle by more than 14 days or any grade ≥3 toxicity, with the exception of the following grade 3 toxicities: nausea, vomiting, anorexia or dehydration resolving to grade ≤2 within 72 hours; increase in hepatic transaminase or electrolyte abnormality resolving eligibility levels within 7 days; diarrhea persisting for less than 72 hours; fever; infection; febrile neutropenia; high cholesterol or triglycerides if responsive (to ≤grade 2) with statin treatment; weight gain; and hyperglycemia if responsive (to <grade 2) with dietary modification.
# [1] = Cohort A1, one line per patient (PID)
# [2] = Cohort A2, neurotoxicity, one line per patient (PID)
# [3] = Cohort A2, one line per patient (PID)
# [4] = patients <18 years, single agent
# [5] = single-agent lorlatinib across all ages, grade 1–4 treatment-related
compound,measurement,setting,value
"C[C@H]1Oc2cc(cnc2N)-c2c(nn(C)c2C#N)CN(C)C(=O)c2ccc(F)cc21 [Lorlatinib, (10R)-7-amino-12-fluoro-2,10,16-trimethyl-15-oxo-10,15,16,17-tetrahydro-2H-8,4-(metheno)pyrazolo[4,3-h][2,5,11]-benzoxadiazacyclotetradecine-3-carbonitrile]",Nausea: Toxicity Maximum Grade per patient,[1],1
same,Neutrophil count decreased: Toxicity Maximum Grade per patient,[1],2
same,Peripheral sensory neuropathy: Toxicity Maximum Grade per patient,[1],2 and 1
same,Platelet count decreased: Toxicity Maximum Grade per patient,[1],1
same,Tinnitus: Toxicity Maximum Grade per patient,[1],1
same,Vomiting: Toxicity Maximum Grade per patient,[1],1
same,Weight gain: Toxicity Maximum Grade per patient,[1],2 and 3 and 1
same,White blood cell decreased: Toxicity Maximum Grade per patient,[1],1 and 3
same,Patients with DLT in course 1,"Cohort A2, 100 mg",0
same,Patients with DLT in course 2,"Cohort A2, 100 mg",0
same,Patients with DLT in other courses,"Cohort A2, 100 mg",2^c
same,Patients with DLT in course 1,"Cohort A2, 150 mg",1^d
same,Patients with DLT in course 2,"Cohort A2, 150 mg","2^e,f"
same,Patients with DLT in other courses,"Cohort A2, 150 mg","3^e,f,g"
same,Toxicity Maximum Grade per patient: Sinus tachycardia,"Cohort A2, patient PID 8, CTCAE grade",1
same,Neutrophil count decreased,"Cohort A2, grade 1-2, 3, 4 in c8-c10",0 (0) n (%)
same,Hypersomnia (CNS effect),"Cohort A2, grade 1-4 in c5-c8",0 (0)
same,Agitation: Toxicity Maximum Grade per patient,[2],4 and 3 and 1
same,Anxiety: Toxicity Maximum Grade per patient,[2],4 and 3 and 2 and 1
same,Cognitive disturbance: Toxicity Maximum Grade per patient,[2],1 and 2
same,Concentration impairment: Toxicity Maximum Grade per patient,[2],1 and 2 and 3
same,Depression: Toxicity Maximum Grade per patient,[2],1 and 3
same,Hallucinations: Toxicity Maximum Grade per patient,[2],1 and 4
same,Headache: Toxicity Maximum Grade per patient,[2],1
same,Memory impairment: Toxicity Maximum Grade per patient,[2],1 and 2 and 3
same,Alanine aminotransferase increased: Toxicity Maximum Grade per patient,[3],1 and 2
same,Alkaline phosphatase increased: Toxicity Maximum Grade per patient,[3],1
same,Anemia: Toxicity Maximum Grade per patient,[3],3 and 1 and 2
same,Aspartate aminotransferase increased: Toxicity Maximum Grade per patient,[3],1 and 2
same,Cholesterol high: Toxicity Maximum Grade per patient,[3],2 and 3 and 1
same,Creatinine increased: Toxicity Maximum Grade per patient,[3],1 and 2
same,Diarrhea: Toxicity Maximum Grade per patient,[3],2 and 1
same,Edema limbs: Toxicity Maximum Grade per patient,[3],1 and 2
same,Electrocardiogram QT corrected interval prolonged: Toxicity Maximum Grade per patient,[3],1
same,Fatigue: Toxicity Maximum Grade per patient,[3],1
same,Flatulence: Toxicity Maximum Grade per patient,[3],1
same,Gastroesophageal reflux disease: Toxicity Maximum Grade per patient,[3],2 and 1
same,Hyperglycemia: Toxicity Maximum Grade per patient,[3],1 and 3
same,Hypertriglyceridemia: Toxicity Maximum Grade per patient,[3],3 and 2 and 1
same,INCREASED APPETITE: Toxicity Maximum Grade per patient,[3],1 and 2
same,Irritability: Toxicity Maximum Grade per patient,[3],4
same,Lymphocyte count decreased: Toxicity Maximum Grade per patient,[3],4 and 1
same,Nausea: Toxicity Maximum Grade per patient,[3],1 and 2
same,Peripheral sensory neuropathy: Toxicity Maximum Grade per patient,[3],3 and 2 and 1
same,Platelet count decreased: Toxicity Maximum Grade per patient,[3],1 and 2
same,Tinnitus: Toxicity Maximum Grade per patient,[3],1
same,Vomiting: Toxicity Maximum Grade per patient,[3],1
same,Weight gain: Toxicity Maximum Grade per patient,[3],2 and 1 and 3
same,White blood cell decreased: Toxicity Maximum Grade per patient,[3],1 and 2
same,Patients with DLT in course 1,"Cohort B2, DL4 (95 mg/m^2)",0
same,Patients with DLT in course 2,"Cohort B2, DL4 (95 mg/m^2)",0
same,Patients with DLT in other courses,"Cohort B2, DL4 (95 mg/m^2)",0
same,Patients with DLT in course 1,"Cohort B2, DL5 (115 mg/m^2)",0
same,Patients with DLT in course 2,"Cohort B2, DL5 (115 mg/m^2)",0
same,Patients with DLT in other courses,"Cohort B2, DL5 (115 mg/m^2)",1^h
same,Amnesia (CNS effect),"Cohort B2, grade 1-4 in c9-c12",0 (0)
same,Delirium (CNS effect),"Cohort B2, grade 1-4 in c9-c12",0 (0)
same,Delusions (CNS effect),"Cohort B2, grade 1-4 in c9-c12",0 (0)
same,Depressed level of consciousness (CNS effect),"Cohort B2, grade 1-4 in c9-c12",0 (0)
same,Dizziness (CNS effect),"Cohort B2, grade 1-4 in c9-c12",0 (0)
same,Dysarthria (CNS effect),"Cohort B2, grade 1-4 in c9-c12",0 (0)
same,Euphoria (CNS effect),"Cohort B2, grade 1-4 in c9-c12",0 (0)
same,Mania (CNS effect),"Cohort B2, grade 1-4 in c9-c12",0 (0)
same,Paresthesia (CNS effect),"Cohort B2, grade 1-4 in c9-c12",0 (0)
same,Psychosis (CNS effect),"Cohort B2, grade 1-4 in c9-c12",0 (0)
same,Restlessness (CNS effect),"Cohort B2, grade 1-4 in c9-c12",0 (0)
same,Stuttering (CNS effect),"Cohort B2, grade 1-4 in c9-c12",0 (0)
same,Suicidal ideation (CNS effect),"Cohort B2, grade 1-4 in c9-c12",0 (0)
same,incidence of peripheral neuropathy,"adults, single agent",27%
same,RP2D,"in combination with topotecan/cyclophosphamide, patients <18 years, daily (DL5)",115 mg/m^2
same,"hypertriglyceridemia, patients with AE","lorlatinib combined with topotecan/cyclophosphamide, <18 years",89%
same,Grade 1–2 peripheral limb edema,[4],4%
same,incidence of peripheral neuropathy,[4],13%
same,Grade 1–2 peripheral limb edema,"patients ≥18 years, single agent",47%
same,RP2D <18 years relative to the adult RP2D,"single agent, 115 mg/m^2/dose daily",approximately 200%
same,RP2D,"single agent, patients <18 years, daily (DL5)",115 mg/m^2
same,RP2D,"single agent, patients ≥18 years, daily",150 mg
same,"hypercholesterolemia / elevated cholesterol, patients with AE",[5],79%
same,"hypertriglyceridemia, patients with AE",[5],90%
same,"weight gain, patients with AE",[5],87%
same,patients developing grade 2–4 CNS effects,"≥18 years (cohort A2), four of 15",27%
same,patients requiring dose reduction due to toxicities,"≥18 years, 150 mg (n = 10)",50%
